Reference: US4791215A, “Derivatives of glutamic acid and aspartic acid” (priority 1984, dated 1988)

Experiments:
[1] = system: CCK-8 induced contraction of guinea pig gall bladder; test: Anti-CCK activity on gall bladder strips in vitro; conditions: CCK-8 10 ng/ml
Experimental: ANTI-CCK ACTIVITY ON GUINEA PIG GALL BALDDERS IN VITRO
A longitudinal strip of guinea pig gall bladder was placed in a bath of isolated members in the presence of Krebs at a temperature of 32° C. with continuous oxygenation with an oxygen-CO2 mixture (95-5V/V).
The isometric contractions were detected by means of a force transducer and recorded.
The gall bladder was made to contract with the use of a 10 ng/ml concentration of CCK-8; the antagonistic activity of the compounds of the invention on the contracting effect of the CCK was determined with the use of different concentrations and the ED 50 value, that is the concentration in μg/ml of a compound which could antagonise 50% of the contracting effect of the CCK, was determined.

morphine analgesia = test: Increase in analgesia of morphine, Tail Flick Test (Experiment 1); format: in vivo, rats; conditions: for percentage variation of latency of pain sensation / M (10-90) ± SE, mean percentage variation of latency: compound 10 mg/kg i.p. + morphine 2 mg/kg; for M (10-90) ± SE, mean percentage variation of latency: mean 10-90 min; for Power ratio with respect to morphine alone: rat, in vivo
Experimental: Experiment No: 1 Increase in analgesia of analgesic-narcotic drugs in rats by the Tail Flick Test
The method is that described by Harris et al. (J. Pharmacol. Exp. Ther. 143 (1964) 141-148).
Male rats are used having a weight of about 150-200 g which have not fasted. A point on the tail is chosen and irradiated by a heat source (75° C.) and the time (in seconds) for which the animal remains without moving its tail is measured.
A maximum period of time of 8 seconds under the heat source is chosen, after which the animal is, in any case, removed to avoid tissue damage. The measurement is effected before (controls) and after treatment with the drugs.
The percentage variation is calculated for each individual animal by the following formula: [formula] The measurements were carried out 10, 20, 30, 45, 60 and 90 minutes after treatment with the analgesics.

| Compound | ED50 (concentration antagonising 50% of contracting effect of CCK-8) [1] | percentage variation of latency of pain sensation (morphine analgesia; 10') | percentage variation of latency of pain sensation (morphine analgesia; 20') | percentage variation of latency of pain sensation (morphine analgesia; 30') | percentage variation of latency of pain sensation (morphine analgesia; 45') | percentage variation of latency of pain sensation (morphine analgesia; 60') | percentage variation of latency of pain sensation (morphine analgesia; 90') | M (10-90) ± SE, mean percentage variation of latency (morphine analgesia) | Power ratio with respect to morphine alone (morphine analgesia) |
| --- | --- | --- | --- | --- | --- | --- | --- | --- | --- |
| CCCCN(CCCC)C(=O)C(CCC(=O)O)NC(=O)c1cc(Cl)c(Cl)c(Cl)c1 (stereo not drawn) [Compound C-11] | 0.85 µg/mL | 25.2 ± 4.0% | 37.6 ± 16.0% | 50.9 ± 11.0% | 54.4 ± 9.0% | 35.8% | 18.7 ± 10.0% | 37.1 ± 14.0% | 1.24 |
| CCCN(CCC)C(=O)C(CCC(=O)O)NC(=O)c1ccc(F)cc1 (stereo not drawn) [Compound C-12] | 64.7 µg/mL | 54.4 ± 16.7% | 76.3% | 61.6 ± 16.0% | 63.9 ± 20.0% | 65.2 ± 17.0% | 11.6 ± 14.0% | 55.5% | 1.86 |
| CCCN(CCC)C(=O)C(CCC(=O)O)NC(=O)c1cc(F)cc(F)c1 (stereo not drawn) [Compound C-13] | > 200 µg/mL | 24.6 ± 8.9% | 70.0 ± 18.5% | 75.5 ± 15.0% | 56.6% | 62.3 ± 17.3% | 59.2 ± 25.1% | 58.0 ± 18.0% | 1.95 |
| CCCN(CCC)C(=O)C(CCC(=O)O)NC(=O)c1ccccc1Br (stereo not drawn) [Compound C-14] | 118.4 µg/mL | 36.5 ± 28.4% | 76.0 ± 12.7% | 79.3 ± 10.6% | 77.0 ± 6.7% | 98.3 ± 1.3% | 71.9 ± 13.2% | 73.1 ± 20.0% | 2.45 |
| CCCN(CCC)C(=O)C(CCC(=O)O)NC(=O)c1ccc(Br)cc1 (stereo not drawn) [Compound C-15] | > 200 µg/mL | 59.8 ± 14.0% | 84.2 ± 9.6% | 78.3 ± 13.5% | 88.7 ± 8.5% | 82.5 ± 12.7% | 54.5 ± 14.7% | 74.7% | 2.51 |
| CCCN(CCC)C(=O)C(CC(=O)O)NC(=O)c1ccccc1Br (stereo not drawn) [Compound C-16] | > 200 µg/mL | 43.2 ± 11.0% | 88.7 ± 10.0% | 54.8 ± 5.8% | 47.3% | 26.1 ± 11.5% | 22.2 ± 16.7% | 47.0 ± 24.0% | 1.58 |
| CCCN(CCC)C(=O)C(CCC(=O)O)NC(=O)c1ccccc1I (stereo not drawn) [Compound C-17] | > 200 µg/mL | 18.9% | 37.0 ± 12.0% | 45.8 ± 18.0% | 41.0 ± 17.0% | 39.3 ± 20.0% | 31.2 ± 18.0% | 35.5 ± 9.5% | 1.19 |
| CCCN(CCC)C(=O)C(CCC(=O)O)NC(=O)c1ccc(I)cc1 (stereo not drawn) [Compound C-18] | 60.3 µg/mL | 48.9 ± 31.0% | 65.9 ± 24.0% | 80.1 ± 9.0% | 59.1 ± 20.0% | 33.5 ± 20.0% | 81.4 ± 12.0% | 58.1% | 1.95 |
| CCCN(CCC)C(=O)C(CCC(=O)O)NC(=O)c1cc(I)c(I)c(I)c1 (stereo not drawn) [Compound C-19] | > 200 µg/mL | 3.6 ± 12.0% | 42.8 ± 19.0% | 58.4 ± 21.0% | 66.1% | 57.1 ± 18.0% | 35.6 ± 20.0% | 43.9 ± 22.7% | 1.47 |
| CCCCNC(=O)C(CCC(=O)O)NC(=O)c1cccc(C#N)c1 (stereo not drawn) [Compound C-21] | > 200 µg/mL | 48.6 ± 19.0% | 37.4 ± 12.0% | 54.8 ± 19.0% | 44.6 ± 15.0% | 64.0 ± 18.0% | 54.9 ± 10.0% | 50.7% | 1.70 |
